The supplement of paper PMC10307832

Legend:
Assay in all cases: relative viability (nuclei count vs DMSO), 5 days (fraction); higher = more cells survive
[1] = compound: C=C(c1ccc(C(=O)O)cc1)c1cc2c(cc1C)C(C)(C)CCC2(C)C [Bexarotene]
Summary of the method: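 Viability was read as treated-well nuclei divided by vehicle-well nuclei, using the median across plates. Lung cancer cell lines in 1536-well plates were kept overnight at 37 °C, pinned with five √10-spaced library-drug doses, and after 5 days were Hoechst-stained, imaged at 4× and counted in MetaXpress. Plates passed only with control CV below 25% and at least one doubling.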

[2] = compound: C=C(c1ccc(C(=O)O)cc1)c1cc2c(cc1C)C(C)(C)CCC2(C)C [Bexarotene] + Cc1cc(Nc2cc(N3CCN(C)CC3)nc(Sc3ccc(NC(=O)C4CC4)cc3)n2)n[nH]1 [Tozasertib] (partner 0.1 µM)
Summary of the method: (§1)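 Nuclei were stained with Hoechst during a one-step fixation (final 0.05% Triton X-100, 1% formaldehyde, 1 ug/ml Hoechst) carried out 5 days after dosing, then counted on 4× images. The cells, lung cancer lines in 1536-well plates, had been dosed by pin tool the day after seeding with one drug alone or a fixed anchor-drug dose plus five library-drug doses (not always all listed) in √10 steps. Relative viability is the nuclei count in treated wells divided by that in vehicle wells, and each value is the median of duplicate plates.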

[3] = compound: C=C(c1ccc(C(=O)O)cc1)c1cc2c(cc1C)C(C)(C)CCC2(C)C [Bexarotene] + Nc1nc2[nH]cc(CCc3ccc(C(=O)N[C@@H](CCC(=O)O)C(=O)O)cc3)c2c(=O)[nH]1 [Pemetrexed] (partner 0.2 µM)
Summary of the method: as §1

[4] = compound: C=C(c1ccc(C(=O)O)cc1)c1cc2c(cc1C)C(C)(C)CCC2(C)C [Bexarotene] + CC(=O)c1c(C)c2cnc(Nc3ccc(N4CCNCC4)cn3)nc2n(C2CCCC2)c1=O [Palbociclib] (partner 0.5 µM)
Summary of the method: as §1

[5] = compound: C=C(c1ccc(C(=O)O)cc1)c1cc2c(cc1C)C(C)(C)CCC2(C)C [Bexarotene] + Cc1nc(Nc2ncc(C(=O)Nc3c(C)cccc3Cl)s2)cc(N2CCN(CCO)CC2)n1 [Dasatinib] (partner 0.075 µM)
Summary of the method: as §1

[6] = compound: C=C(c1ccc(C(=O)O)cc1)c1cc2c(cc1C)C(C)(C)CCC2(C)C [Bexarotene] + O=C(c1cc(Cc2n[nH]c(=O)c3ccccc23)ccc1F)N1CCN(C(=O)C2CC2)CC1 [Olaparib] (partner 8 µM)
Summary of the method: as §1

[7] = compound: C=C(c1ccc(C(=O)O)cc1)c1cc2c(cc1C)C(C)(C)CCC2(C)C [Bexarotene] + CCNC(=O)c1noc(-c2cc(C(C)C)c(O)cc2O)c1-c1ccc(CN2CCOCC2)cc1 [Luminespib] (partner 0.01 µM)
Summary of the method: as §1

[8] = compound: C=C(c1ccc(C(=O)O)cc1)c1cc2c(cc1C)C(C)(C)CCC2(C)C [Bexarotene] + Nc1ncn([C@H]2C[C@H](O)[C@@H](CO)O2)c(=O)n1 [Decitabine] (partner 2 µM)
Summary of the method: as §1

[9] = compound: C=C(c1ccc(C(=O)O)cc1)c1cc2c(cc1C)C(C)(C)CCC2(C)C [Bexarotene] + COc1cccc2cc(-c3nc([C@H]4CC[C@H](C(=O)O)CC4)n4ncnc(N)c34)[nH]c12 [OSI-027] (partner 0.5 µM)
Summary of the method: as §1

[10] = compound: C=C(c1ccc(C(=O)O)cc1)c1cc2c(cc1C)C(C)(C)CCC2(C)C [Bexarotene] + N=C(N)NC(=N)NCCc1ccccc1 [Phenformin] (partner 250 µM)
Summary of the method: as §1

[11] = compound: C=C(c1ccc(C(=O)O)cc1)c1cc2c(cc1C)C(C)(C)CCC2(C)C [Bexarotene] + NC(=O)Nc1cc(-c2cccc(F)c2)sc1C(=O)N[C@H]1CCCNC1 [AZD7762] (partner 0.2 µM)
Summary of the method: as §1

[12] = compound: C=C(c1ccc(C(=O)O)cc1)c1cc2c(cc1C)C(C)(C)CCC2(C)C [Bexarotene] + O=C(CCCCCCC(=O)Nc1ccccc1)NO [Vorinostat] (partner 1 µM)
Summary of the method: as §1

[13] = compound: C=C(c1ccc(C(=O)O)cc1)c1cc2c(cc1C)C(C)(C)CCC2(C)C [Bexarotene] + CC(=O)Nc1cccc(-n2c(=O)n(C3CC3)c(=O)c3c(Nc4ccc(I)cc4F)n(C)c(=O)c(C)c32)c1 [Trametinib] (partner 0.02 µM)
Summary of the method: as §1

## NCI-H522
[1]; 0.08 µM
  relative viability: 1.14
[1]; 0.253 µM
  relative viability: 0.872
[1]; 0.8 µM
  relative viability: 0.957
[1]; 2.53 µM
  relative viability: 0.816
[1]; 8 µM
  relative viability: 1.02
[2]; first compound 0.08 µM
  relative viability: 0.551
[2]; first compound 0.253 µM
  relative viability: 0.523
[2]; first compound 0.8 µM
  relative viability: 0.562
[2]; first compound 2.53 µM
  relative viability: 0.506
[2]; first compound 8 µM
  relative viability: 0.634
[3]; first compound 0.08 µM
  relative viability: 1.01
[3]; first compound 0.253 µM
  relative viability: 1.18
[3]; first compound 0.8 µM
  relative viability: 1.11
[3]; first compound 2.53 µM
  relative viability: 0.855
[3]; first compound 8 µM
  relative viability: 0.862
[4]; first compound 0.08 µM
  relative viability: 1.04
[4]; first compound 0.253 µM
  relative viability: 0.887
[4]; first compound 0.8 µM
  relative viability: 1.07
[4]; first compound 2.53 µM
  relative viability: 1.14
[4]; first compound 8 µM
  relative viability: 1.04
[5]; first compound 0.08 µM
  relative viability: 0.939
[5]; first compound 0.253 µM
  relative viability: 0.874
[5]; first compound 0.8 µM
  relative viability: 0.957
[5]; first compound 2.53 µM
  relative viability: 0.842
[5]; first compound 8 µM
  relative viability: 0.93
[6]; first compound 0.08 µM
  relative viability: 0.666
[6]; first compound 0.253 µM
  relative viability: 0.66
[6]; first compound 0.8 µM
  relative viability: 0.635
[6]; first compound 2.53 µM
  relative viability: 0.564
[6]; first compound 8 µM
  relative viability: 0.675
[7]; first compound 0.08 µM
  relative viability: 1.24
[7]; first compound 0.253 µM
  relative viability: 1.09
[7]; first compound 0.8 µM
  relative viability: 1.17
[7]; first compound 2.53 µM
  relative viability: 1.23
[7]; first compound 8 µM
  relative viability: 0.899
[8]; first compound 0.08 µM
  relative viability: 0.642
[8]; first compound 0.253 µM
  relative viability: 0.666
[8]; first compound 0.8 µM
  relative viability: 0.653
[8]; first compound 2.53 µM
  relative viability: 0.673
[8]; first compound 8 µM
  relative viability: 0.609
[9]; first compound 0.08 µM
  relative viability: 0.722
[9]; first compound 0.253 µM
  relative viability: 0.721
[9]; first compound 0.8 µM
  relative viability: 0.677
[9]; first compound 2.53 µM
  relative viability: 0.706
[9]; first compound 8 µM
  relative viability: 0.705
[10]; first compound 0.08 µM
  relative viability: 0.612
[10]; first compound 0.253 µM
  relative viability: 0.521
[10]; first compound 0.8 µM
  relative viability: 0.591
[10]; first compound 2.53 µM
  relative viability: 0.518
[10]; first compound 8 µM
  relative viability: 0.626
[11]; first compound 0.08 µM
  relative viability: 0.788
[11]; first compound 0.253 µM
  relative viability: 0.949
[11]; first compound 0.8 µM
  relative viability: 0.734
[11]; first compound 2.53 µM
  relative viability: 0.697
[11]; first compound 8 µM
  relative viability: 0.822
[12]; first compound 0.08 µM
  relative viability: 0.961
[12]; first compound 0.253 µM
  relative viability: 0.862
[12]; first compound 0.8 µM
  relative viability: 0.977
[12]; first compound 2.53 µM
  relative viability: 0.94
[12]; first compound 8 µM
  relative viability: 1.01
[13]; first compound 0.08 µM
  relative viability: 0.736
[13]; first compound 0.253 µM
  relative viability: 0.805
[13]; first compound 0.8 µM
  relative viability: 0.74
[13]; first compound 2.53 µM
  relative viability: 0.797
[13]; first compound 8 µM
  relative viability: 0.736
